Test results reported in ChEMBL document CHEMBL5113440, “Optimization of clofibrate with O-desmethyl anetholtrithione lead to a novel hypolipidemia compound with hepatoprotective effect” (Bioorg Med Chem Lett, 2022).
Calls of active or inactive are those of the source. The rule behind the calls is not given here.

Legend:
[1] = tested on: Mus musculus; assay: Hypolipidemic activity in Triton-WR-1339 induced hyperlipidemic KM mouse model assessed as reduction in plasma TG level administered intragastrically via gavage for 7 days; type: functional, organism-based; conditions: dose 0.029-0.267 mmol/Kg, route ig, time 7.0 day, DDE = dose-dependent effect
[2] = tested on: Mus musculus; assay: Hypolipidemic activity in Triton-WR-1339 induced hyperlipidemic KM mouse model assessed as reduction in plasma TC level administered intragastrically via gavage for 7 days; type: functional, organism-based; conditions: dose 0.029-0.267 mmol/Kg, route ig, time 7.0 day, DDE = dose-dependent effect
[3] = Toxicity in KM mouse assessed as reduction in body weight at 1.65 mmol/Kg, IG administered via gavage measured for 1 month; conditions: in vivo, po, 730 h, time 1 months
[4] = Hepatotoxicity in KM mouse assessed as effect on liver weight at 1.65 mmol/Kg, IG administered via gavage measured for 1 month; type: toxicity, tissue-based; conditions: in vivo, po, 730 h, time 1 months
[5] = Hepatotoxicity in KM mouse assessed as reduction in liver coefficient at 1.65 mmol/Kg, IG administered via gavage measured for 1 month; type: toxicity, tissue-based; conditions: in vivo, po, 730 h, time 1 months
[6] = Hepatotoxicity in KM mouse assessed as reduction in plasma AST level at 1.65 mmol/Kg, IG administered via gavage measured for 1 month by automated biochemical analyzer; type: toxicity; conditions: in vivo, po, 730 h, time 1 months
[7] = Hepatotoxicity in KM mouse assessed as reduction in plasma ALT level at 1.65 mmol/Kg, IG administered via gavage measured for 1 month by automated biochemical analyzer; type: toxicity; conditions: in vivo, po, 730 h, time 1 months
[8] = Hepatotoxicity in KM mouse assessed as reduction in plasma ALP level at 1.65 mmol/Kg, IG administered via gavage measured for 1 month by automated biochemical analyzer; type: toxicity; conditions: in vivo, po, 730 h, time 1 months
[9] = Hepatotoxicity in KM mouse assessed as reduction in total bilirubin level in plasma at 1.65 mmol/Kg, IG administered via gavage measured for 1 month by automated biochemical analyzer; type: toxicity; conditions: po, 730 h, time 1 months
[10] = tested on: Mus musculus; assay: Antioxidant activity in KM mouse assessed as increase in SOD level in plasma at 1.65 mmol/Kg, IG administered via gavage measured for 1 month; type: functional, organism-based; conditions: time 1.0 months
[11] = tested on: Mus musculus; assay: Antioxidant activity in KM mouse assessed as increase in CAT level in plasma at 1.65 mmol/Kg, IG administered via gavage measured for 1 month; type: functional, organism-based; conditions: time 1.0 months
[12] = tested on: Mus musculus; assay: Antioxidant activity in KM mouse assessed as increase in GSH level in plasma at 1.65 mmol/Kg, IG administered via gavage measured for 1 month; type: functional, organism-based; conditions: time 1.0 months
[13] = tested on: Mus musculus; assay: Antioxidant activity in KM mouse assessed as reduction in MDA level in plasma at 1.65 mmol/Kg, IG administered via gavage measured for 1 month; type: functional, organism-based; conditions: time 1.0 months
[14] = tested on: Mus musculus; assay: Antiinflammatory activity in KM mouse assessed as downregulation of TNF-alpha expression in liver tissue at 1.65 mmol/Kg, IG administered via gavage measured for 1 month by Western blot analysis; type: functional, organism-based; conditions: time 1.0 months
[15] = tested on: Mus musculus; assay: Antiinflammatory activity in KM mouse assessed as downregulation of IL-6 expression in liver tissue at 1.65 mmol/Kg, IG administered via gavage measured for 1 month by Western blot analysis; type: functional, organism-based; conditions: time 1.0 months
[16] = Hepatotoxicity in KM mouse assessed as infiltration of inflammatory cells at 1.65 mmol/Kg, IG administered via gavage by H and E staining based analysis; type: toxicity; conditions: in vivo, po
[17] = Hepatotoxicity in KM mouse assessed as nuclear degeneration at 1.65 mmol/Kg, IG administered via gavage by H and E staining based analysis; type: toxicity; conditions: in vivo, po
[18] = Hepatotoxicity in KM mouse assessed as appearance of loose cytoplasm at 1.65 mmol/Kg, IG administered via gavage by H and E staining based analysis; type: toxicity; conditions: in vivo, po
[19] = tested on: Mus musculus; assay: Hepatoprotective activity in KM mouse assessed as improvement in hepatocyte injury at 1.65 mmol/Kg, IG administered via gavage by H and E staining based analysis; type: functional, organism-based
[20] = tested on: Mus musculus; assay: Upregulation of Nrf2 protein expression in liver of KM mouse at 1.65 mmol/Kg, IG administered via gavage measured after 1 month by Western blot analysis; type: functional; conditions: time 1.0 months
[21] = tested on: Mus musculus; assay: Upregulation of HO-1 protein expression in liver of KM mouse at 1.65 mmol/Kg, IG administered via gavage measured after 1 month by Western blot analysis; type: functional; conditions: time 1.0 months
[22] = tested on: Mus musculus; assay: Downregulation of p-NF-kappaB p65 protein expression in liver of KM mouse at 1.65 mmol/Kg, IG administered via gavage measured after 1 month by Western blot analysis; type: functional; conditions: time 1.0 months
[23] = tested on: Mus musculus; assay: Induction of oxidative stress in KM mouse assessed as reduction in SOD level in plasma at 1.65 mmol/Kg, IG administered via gavage measured for 1 month; type: functional, organism-based; conditions: time 1.0 months
[24] = tested on: Mus musculus; assay: Induction of oxidative stress in KM mouse assessed as reduction in CAT level in plasma at 1.65 mmol/Kg, IG administered via gavage measured for 1 month; type: functional, organism-based; conditions: time 1.0 months
[25] = tested on: Mus musculus; assay: Induction of oxidative stress in KM mouse assessed as reduction in GSH level in plasma at 1.65 mmol/Kg, IG administered via gavage measured for 1 month; type: functional, organism-based; conditions: time 1.0 months
[26] = tested on: Mus musculus; assay: Induction of oxidative stress in KM mouse assessed as increase in MDA level in plasma at 1.65 mmol/Kg, IG administered via gavage measured for 1 month; type: functional, organism-based; conditions: time 1.0 months
[27] = tested on: Mus musculus; assay: Induction of inflammation in KM mouse assessed as upregulation of TNF-alpha expression in liver tissue at 1.65 mmol/Kg, IG administered via gavage measured for 1 month by Western blot analysis; type: functional; conditions: time 1.0 months
[28] = tested on: Mus musculus; assay: Induction of inflammation in KM mouse assessed as upregulation of IL-6 expression in liver tissue at 1.65 mmol/Kg, IG administered via gavage measured for 1 month by Western blot analysis; type: functional; conditions: time 1.0 months
[29] = Hepatotoxicity in KM mouse assessed as large areas of hepatocytes swelling at 1.65 mmol/Kg, IG administered via gavage by H and E staining based analysis; type: toxicity; conditions: in vivo, po
[30] = Hepatotoxicity in KM mouse assessed as blurred edge dissolution at 1.65 mmol/Kg, IG administered via gavage by H and E staining based analysis; type: toxicity; conditions: in vivo, po
[31] = tested on: Mus musculus; assay: Upregulation of p-NF-kappaB p65 protein expression in liver of KM mouse at 1.65 mmol/Kg, IG administered via gavage measured after 1 month by Western blot analysis; type: functional; conditions: time 1.0 months

**Q.** With `CC(C)(Oc1ccc(Cl)cc1)C(=O)Oc1ccc(-c2cc(=S)ss2)cc1` as the compound, how does the Activity [1] read?
**A.** The Activity was “Dde”.

**Q.** What about the Activity [2] of the same compound?
**A.** The Activity was “Dde”.

**Q.** What about the Activity [3] of the same compound?
**A.** The Activity was “Non-Toxic”.

**Q.** And the Activity [4]?
**A.** The Activity was “Non-Toxic”.

**Q.** What about the Activity [5] of the same compound?
**A.** Its Activity is “Non-Toxic”.

**Q.** And the Activity [6]?
**A.** The Activity was “Non-Toxic”.

**Q.** What about the Activity [7] of the same compound?
**A.** The Activity was “Non-Toxic”.

**Q.** What about the Activity [8] of the same compound?
**A.** Its Activity is “Non-Toxic”.

**Q.** And the Activity [9]?
**A.** Its Activity is “Non-Toxic”.

**Q.** What about the Activity [10] of the same compound?
**A.** Its Activity is “Active”.

**Q.** And the Activity [11]?
**A.** Its Activity is “Active”.

**Q.** What about the Activity [12] of the same compound?
**A.** Its Activity is “Active”.

**Q.** And the Activity [13]?
**A.** Its Activity is “Active”.

**Q.** What about the Activity [14] of the same compound?
**A.** The Activity was “Active”.

**Q.** What about the Activity [15] of the same compound?
**A.** Its Activity is “Active”.

**Q.** What about the Activity [16] of the same compound?
**A.** The Activity was “Non-Toxic”.

**Q.** And the Activity [17]?
**A.** The Activity was “Non-Toxic”.

**Q.** And the Activity [18]?
**A.** The Activity was “Non-Toxic”.

**Q.** What about the Activity [19] of the same compound?
**A.** Its Activity is “Active”.

**Q.** What about the Activity [20] of the same compound?
**A.** The Activity was “Active”.

**Q.** What about the Activity [21] of the same compound?
**A.** The Activity was “Active”.

**Q.** What about the Activity [22] of the same compound?
**A.** Its Activity is “Active”.

**Q.** For `CCOC(=O)C(C)(C)Oc1ccc(Cl)cc1` [CLOFIBRATE], which Activity [3] is on record?
**A.** Its Activity is “Non-Toxic”.

**Q.** And the Activity [4]?
**A.** The Activity was “Toxic”.

**Q.** What about the Activity [5] of the same compound?
**A.** The Activity was “Toxic”.

**Q.** What about the Activity [6] of the same compound?
**A.** The Activity was “Toxic”.

**Q.** And the Activity [7]?
**A.** Its Activity is “Toxic”.

**Q.** And the Activity [8]?
**A.** The Activity was “Toxic”.

**Q.** What about the Activity [9] of the same compound?
**A.** The Activity was “Toxic”.

**Q.** What about the Activity [23] of the same compound?
**A.** Its Activity is “Active”.

**Q.** What about the Activity [24] of the same compound?
**A.** Its Activity is “Active”.

**Q.** And the Activity [25]?
**A.** Its Activity is “Active”.

**Q.** What about the Activity [26] of the same compound?
**A.** The Activity was “Active”.

**Q.** And the Activity [27]?
**A.** The Activity was “Active”.

**Q.** And the Activity [28]?
**A.** The Activity was “Active”.

**Q.** What about the Activity [29] of the same compound?
**A.** Its Activity is “Toxic”.

**Q.** And the Activity [16]?
**A.** The Activity was “Toxic”.

**Q.** And the Activity [17]?
**A.** The Activity was “Toxic”.

**Q.** What about the Activity [30] of the same compound?
**A.** Its Activity is “Toxic”.

**Q.** What about the Activity [18] of the same compound?
**A.** The Activity was “Toxic”.

**Q.** What about the Activity [31] of the same compound?
**A.** Its Activity is “Active”.
